{"source": "patent US10596150B2", "about": "“Antifungal agents” (F2G LIMITED, priority 2014, dated 2020)", "assay_in_all_cases": "Minimum Inhibitory Concentration (MIC), RPMI medium", "format_in_all_cases": "cell-based", "key": {"[1]": {"test_system": "Scedosporium prolifican 4883", "method": "(§1) Between 1 and 5 mgs of the compound were accurately weighed out into a sterile Eppendorf tube. The compound was dissolved in DMSO to give a solution containing 5 mg/mL. Tubes were stored at −20° C. until required.\n(§2) On the day of testing thawed solutions were vortex mixed to ensure homogeneity. 30 μL of solution was removed and added to 570 μL of sterile water in a separate sterile Eppendorf. The thoroughly mixed solution was used to prepare a series of doubling dilutions in water, in a deep well plate. Thirteen replicate plates were prepared using a Minitrak by aspirating 20 μL from each well into eleven clear polystyrene 96 well plates.\n(§3) Spores of Aspergillus and Scedosporium were harvested from cultures grown on Sabarauds agar for 5 days, and resuspended in PBS/Tween 80 to approx 1×10^7 cfu/mL. Each organism suspension was diluted in RPMI medium, containing 2% glucose and 0.135 M MOPS buffer (pH 7.0) to 0.5-2×10^4 cfu/mL. 80 μL of an organism suspension was added to each well of the plate containing drug dilutions.\n(§4) This produced MIC plates with a drug range 50-0.05 mg/L and organism inocula of 1-2×10^4 cfu/mL. All plates were incubated for 24-48 h at 35° C. Growth was assessed by monitoring the optical density at 485 nm for each well. The MIC of a compound is the lowest drug concentration that inhibits growth of an organism by >80% compared with a drug free control."}, "[2]": {"test_system": "Scedosporium apiospermum 8353", "method": "as §1, §2, §3, §4"}, "[3]": {"test_system": "Scedosporium prolificans 206", "settings": "Lomentospora prolificans", "method": "as §1, §2, §3, §4"}, "[4]": {"test_system": "Scedosporium prolifican 13486", "method": "as §1, §2, §3, §4"}, "A. flavus": {"test_system": "A. flavus", "settings": "Aspergillus flavus, >80% growth inhibition", "method": "as §1, §2, §3, §4"}, "[5]": {"test_system": "Scedosporium apiospermum 15848", "method": "as §1, §2, §3, §4"}, "A. terreus": {"test_system": "A. terreus", "settings": "Aspergillus terreus, >80% growth inhibition", "method": "as §1, §2, §3, §4"}, "[6]": {"test_system": "Scedosporium apiospermum 4883", "method": "as §1, §2, §3, §4"}, "A. fumigatus 210": {"test_system": "A. fumigatus 210", "settings": "Aspergillus fumigatus, >80% growth inhibition", "method": "as §1, §2, §3, §4"}, "[7]": {"test_system": "Scedosporium prolifican 15848", "method": "as §1, §2, §3, §4"}, "[8]": {"test_system": "Scedosporium prolifican 451", "method": "as §1, §2, §3, §4"}, "A. terreus 49": {"test_system": "A. terreus 49", "settings": "Aspergillus terreus, >80% growth inhibition", "method": "as §1, §2, §3, §4"}, "[9]": {"test_system": "Scedosporium apiospermum 451", "method": "as §1, §2, §3, §4"}, "[10]": {"test_system": "Scedosporium prolifican 8353", "method": "as §1, §2, §3, §4"}, "[11]": {"test_system": "Scedosporium species 15849", "method": "as §1, §2, §3, §4"}, "[12]": {"test_system": "Scedosporium prolificans 18389", "settings": "Lomentospora prolificans", "method": "as §1, §2, §3, §4"}, "A. fumigatus": {"test_system": "A. fumigatus", "settings": "Aspergillus fumigatus, >80% growth inhibition", "method": "as §1, §2, §3, §4"}, "Scedos apiospermum 1124": {"test_system": "Scedos apiospermum 1124", "settings": "Scedosporium apiospermum", "method": "as §1, §2, §3, §4"}, "[13]": {"test_system": "Scedosporium apiospermum 13486", "method": "as §1, §2, §3, §4"}, "[14]": {"test_system": "Scedosporium prolifican 201", "method": "as §1, §2, §3, §4"}, "[15]": {"test_system": "Scedosporium prolifican 15849", "method": "as §1, §2, §3, §4"}, "[16]": {"test_system": "Scedosporium prolifican 7935", "method": "as §1, §2, §3, §4"}, "A. niger": {"test_system": "A. niger", "settings": "Aspergillus niger, >80% growth inhibition", "method": "as §1, §2, §3, §4"}, "[17]": {"test_system": "Scedosporium prolifican 1121", "method": "as §1, §2, §3, §4"}, "[18]": {"test_system": "Scedosporium apiospermum 7935", "method": "as §1, §2, §3, §4"}, "[19]": {"test_system": "Scedosporium prolificans 6322", "settings": "Lomentospora prolificans", "method": "as §1, §2, §3, §4"}}}
{"smiles": "Cc1cc(-c2ccccc2)c(C(=O)C(=O)Nc2ccc(N3CCN(c4ncc(F)cn4)CC3)cc2)n1C", "note": "[Example 1, 2-(1,5-dimethyl-3-phenyl-1H-pyrrol-2-yl)-N-(4-(4-(5-fluoropyrimidin-2-yl)piperazin-1-yl)phenyl)-2-oxoacetamide]", "values": [{"measurement": "MIC", "setting": "[1]", "result": "0.01 to 0.02", "unit": "µg/mL"}, {"measurement": "MIC", "setting": "[2]", "result": "0.005 to 0.01", "unit": "µg/mL"}, {"measurement": "MIC", "setting": "[3]", "result": "0.02 to 0.04", "unit": "µg/mL"}, {"measurement": "MIC", "setting": "[4]", "result": "0.02 to 0.04", "unit": "µg/mL"}, {"measurement": "MIC", "setting": "A. flavus", "result": "0.005 to 0.01", "unit": "µg/mL"}, {"measurement": "MIC", "setting": "[5]", "result": "0.02 to 0.04", "unit": "µg/mL"}, {"measurement": "MIC", "setting": "A. terreus", "result": "≤ 0.005", "unit": "µg/mL"}, {"measurement": "MIC", "setting": "[6]", "result": "0.01 to 0.02", "unit": "µg/mL"}, {"measurement": "MIC", "setting": "A. fumigatus 210", "result": "0.01 to 0.02", "unit": "µg/mL"}, {"measurement": "MIC", "setting": "[7]", "result": "0.02 to 0.04", "unit": "µg/mL"}, {"measurement": "MIC", "setting": "[8]", "result": "0.005 to 0.01", "unit": "µg/mL"}, {"measurement": "MIC", "setting": "A. terreus 49", "result": "≤ 0.005", "unit": "µg/mL"}, {"measurement": "MIC", "setting": "[9]", "result": "0.005 to 0.01", "unit": "µg/mL"}, {"measurement": "MIC", "setting": "[10]", "result": "0.005 to 0.01", "unit": "µg/mL"}, {"measurement": "MIC", "setting": "[11]", "result": "0.04 to 0.06", "unit": "µg/mL"}, {"measurement": "MIC", "setting": "[12]", "result": "0.01 to 0.02", "unit": "µg/mL"}, {"measurement": "MIC", "setting": "A. fumigatus", "result": "0.01 to 0.02", "unit": "µg/mL"}, {"measurement": "MIC", "setting": "Scedos apiospermum 1124", "result": "≤ 0.005", "unit": "µg/mL"}, {"measurement": "MIC Scedosporium apiospermum 13486", "setting": "[13]", "result": "D (A grade of D represents an MIC of greater than 0.02 mg/L but less than or equal to 0.04 mg/L)"}, {"measurement": "MIC", "setting": "[13]; Scedosporium apiospermum, 13486", "result": "0.02 to 0.04", "unit": "µg/mL"}, {"measurement": "MIC", "setting": "[14]", "result": "0.02 to 0.04", "unit": "µg/mL"}, {"measurement": "MIC", "setting": "[15]", "result": "0.04 to 0.06", "unit": "µg/mL"}, {"measurement": "MIC", "setting": "[16]", "result": "0.01 to 0.02", "unit": "µg/mL"}, {"measurement": "MIC", "setting": "A. niger", "result": "0.01 to 0.02", "unit": "µg/mL"}, {"measurement": "MIC", "setting": "[17]", "result": "≤ 0.005", "unit": "µg/mL"}, {"measurement": "MIC", "setting": "[18]", "result": "0.01 to 0.02", "unit": "µg/mL"}, {"measurement": "MIC", "setting": "[19]", "result": "0.02 to 0.04", "unit": "µg/mL"}]}
